Experimental data published in US20190308987A1, “DUAL MODULATORS OF BOTH MU AND KAPPA OPIOID RECEPTORS” (priority 2016, published 2019).
“And” between values parts separate entries of the source, which are not always exact repeats. Identical values can stand only once. “Also recorded” adds a separate entry of the source.

How the values were obtained:
colonic motility [1] = details: rodent models; cited from earlier work
KOR = molecular target: T1, KOR (Homo sapiens, UniProt P41145); details: NAP data from ref 9b, cited from earlier work
T1 construct: expressed in transfected cells; host or cells: CHO cells (membranes)
T1 sequence (P41145 whole entry): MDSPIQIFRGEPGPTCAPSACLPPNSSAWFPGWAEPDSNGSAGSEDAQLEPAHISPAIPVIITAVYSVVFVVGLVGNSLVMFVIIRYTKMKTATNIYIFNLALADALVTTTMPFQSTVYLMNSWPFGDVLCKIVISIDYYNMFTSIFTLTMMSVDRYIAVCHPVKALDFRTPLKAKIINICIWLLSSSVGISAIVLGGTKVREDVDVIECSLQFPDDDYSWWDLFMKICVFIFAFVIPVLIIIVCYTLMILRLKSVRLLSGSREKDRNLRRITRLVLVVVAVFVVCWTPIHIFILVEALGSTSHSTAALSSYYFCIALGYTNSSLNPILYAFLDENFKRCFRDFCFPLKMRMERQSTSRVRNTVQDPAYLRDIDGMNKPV

[2] = tested on: mouse proximal colon circular muscle; assay: Colon circular muscle isometric tension recordings, proximal colon
Protocol: (§1) Mice were euthanized by cervical dislocation. The colon was dissected, flushed of its contents, and trimmed of mesentery. […] The tissues, 0.5 cm in length, were suspended vertically along the axis of the circular muscle with a metal triangle tied to a hook under 1 g of passive tension in 15 mL siliconized organ baths.
(§2) Data are presented as the mean±S.E.M, values of P≤0.05 were considered significant.

MOR = MOR (Mus musculus, UniProt P42866); details: relative to DAMGO, NAP data from ref 9b; cited from earlier work
Sequence of MOR (P42866 whole entry): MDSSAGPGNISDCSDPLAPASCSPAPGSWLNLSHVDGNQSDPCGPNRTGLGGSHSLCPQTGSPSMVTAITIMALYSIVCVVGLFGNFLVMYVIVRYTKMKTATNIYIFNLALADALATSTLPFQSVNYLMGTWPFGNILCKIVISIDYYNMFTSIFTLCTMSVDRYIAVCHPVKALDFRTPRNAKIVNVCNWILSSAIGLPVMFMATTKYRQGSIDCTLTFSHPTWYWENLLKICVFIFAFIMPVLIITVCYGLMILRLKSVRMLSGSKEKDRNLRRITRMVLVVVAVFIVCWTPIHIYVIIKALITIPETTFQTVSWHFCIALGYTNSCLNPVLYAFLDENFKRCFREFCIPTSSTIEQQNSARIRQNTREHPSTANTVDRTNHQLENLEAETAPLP

[3] = tested on: mouse distal colon circular muscle; assay: Colon circular muscle isometric tension recordings, distal colon
Protocol: as §1, §2

[4] = tested on: guinea pig ileum Longitudinal Muscle Myenteric Plexus (LMMP); assay: Electrical field stimulated contractions in LMMP strips
Protocol: Male albino guinea pigs (350-450 g) were euthanized by asphyxiation with CO2. A segment of ileum was removed and placed in a dissection bath filled with pre-oxygenated Krebs' solution (118 mM NaCl, 4.6 mM KCl, 1.3 mM NaH2PO4, 1.2 mM MgSO4, 25 mM NaHCO3, 11 mM glucose, and 2.5 mM CaCl2). Longitudinal Muscle Myenteric Plexus (LMMP) strips were prepared as previously described.^26 Electrical field stimulation (EFS) (50 V, 7.5 Hz, unless stated otherwise) was applied through concentric electrodes over longitudinal muscle or L-type stimulating electrodes over circular muscle strips to produce neurogenic contractions/relaxations. Drugs were added in single or cumulative doses depending on the assay to determine their inhibitory effects on the neurogenic responses.

colonic motility [5] = assay: Colonic bead expulsion assay; assay type: in vivo, mice; details: morphine 3 mg/kg; naive mice 17 min
Protocol: Mice were habituated and fasted as described above for the gastrointestinal transit analysis. […] At 20 min post-injection, animals were anesthetized with isoflurane (1-2 min) to insert a single 2-mm glass bead into the distal colon at a distance of 3 cm from the anus. Bead insertion was accomplished using a glass rod with a fire-polished end to avoid tissue damage and marked at 3 cm.^25 After bead insertion, mice were placed in individual cages and the time to bead expulsion was monitored. Animals were monitored for a maximum of 2 h unless bead expulsion occurred sooner.

morphine antinociception = assay: Warm water tail immersion (tail flick) test; assay type: in vivo, Swiss Webster mice; details: morphine alone, warm water tail flick
Protocol: Male Swiss Webster mice (Harlan Laboratories, Indianapolis, Ind.) weighing 25-30 g were housed 5 to a cage in animal care quarters and maintained at […] on a 12 h light-dark cycle. Food and water were available ad libitum. The mice were brought to a test room (22±2° C., 12 h light-dark cycle), marked for identification and allowed 18 h to recover from transport and handling. Protocols and procedures were approved by the Institutional Animal Care and Use Committee (IACUC) at Virginia Commonwealth University Medical Center and comply with the recommendations of the IASP (International Association for the Study of Pain).
The warm water tail-immersion test was performed according to previously described methods using a water bath with the temperature maintained at 56±0.1° C.^20 Briefly, before giving the mice injections, a baseline (control) latency was determined. Only mice with a control reaction time of 2 to 4 s were used. The average baseline latency for these experiments was 3.0±0.1 s. The test latency after drug treatment was assessed at the appropriate time, and a 10 s maximal cutoff time was imposed to prevent tissue damage. Antinociception was quantified according to established procedures as the percentage of maximum possible effect (% MPE), which was calculated as follows: % MPE=[(test latency−control latency)/(10−control latency)]×100.^21 Percentage MPE was calculated for each mouse, using at least six mice per group.
Intracerebroventricular (ICV) injections were performed as described previously.^22 Mice were anesthetized with 2.5% isoflurane and a horizontal incision was made in the scalp. A needle was inserted to a depth of 3 mm into the lateral ventrical (2 mm rostral and 2 mm lateral at a 45° angle from the bregma). At intervals, 5 μL injections of drug or vehicle were made using this guide insertion to the same depth using a needle with a guard in nonanesthetized animals.^22, 23 Animals underwent the anesthetized surgery in the morning of the experiment and were then injected with drug at intervals indicated in the text without additional anesthesia. Immediately after testing, the animals were euthanized to minimize any type of distress, according to IACUC guidelines.

intestinal transit = assay: Charcoal meal test for gastrointestinal transit; assay type: in vivo, mice; details: charcoal gavage, compound alone
Protocol: Forty-eight hours before testing, mice were placed in cages with raised mesh wire to suspend them above their bedding and prevent ingestion of feces or bedding. The animals were habituated for 24 h in the presence of food and water and then fasted for 24 h with free access to water as previously reported.^24 This time frame was chosen to deplete the intestine and colon of any feces. To maintain caloric intake and to avoid hypoglycemia, mice had access to a sugar water solution consisting of a final concentration of 5% dextrose for the first 8 h of the fasting period. […] At 30 min after the administration of the charcoal meal, the mice were euthanized by cervical dislocation, and the small intestine from the jejunum to the cecum was dissected and placed in cold saline to stop peristalsis. The distance traveled by the leading edge of the charcoal meal was measured relative to the total length of the small intestine, and the percentage of intestinal transit for each animal was calculated as percentage transit (charcoal distance)/(small intestinal length)×100. This is referred to as intestinal transit in the text.

GI transit = details: humans; cited from earlier work

COC(=O)[C@@H]1C[C@H](OC(C)=O)C(=O)[C@H]2[C@@]1(C)CC[C@H]1C(=O)O[C@H](c3ccoc3)C[C@]21C [Salvinorin A]
effect on colonic / GI motility (colonic motility [1]): reduced colonic motility; also recorded: can reduce GI motility

O=C(NC1CCC2(O)C3Cc4ccc(O)c5c4C2(CCN3CC2CC2)C1O5)c1ccncc1 (stereo not drawn) [NAP, 17-Cyclopropylmethyl-3, 14beta-dihydroxy-4,5alpha-epoxy-6beta-(4′-pyridylcarboxamido)morphinan, reference compound]
EC50 (KOR; 35S-GTP[γS]): 28.8 ± 14.4 nM
% max of agonist (KOR; relative to U50,488H): 45.5±4.4%
inhibition of morphine-induced contractions ([2]; 1 nM antagonist, proximal colon): neither NAP nor BNAP showed significant inhibition of morphine-induced contractions
morphine pD2 in presence of antagonist ([2]; 10 nM antagonist, proximal colon (naive 6.8)): 5.9
further reduction of morphine pD2 ([2]; 100 nM versus 10 nM antagonist, proximal colon): no further reduction of the morphine pD2
contractions induced by compound alone ([2]; up to 30 μM, proximal colon preparation): Neither BNAP nor NAP alone at concentrations up to 30 μM induced contractions
% max of agonist (MOR): 22.72±0.84% and 22.7 ± 0.8%
inhibition of morphine-induced contractions ([3]; 1 nM antagonist, distal colon): neither NAP nor BNAP showed significant inhibition of morphine-induced contractions
antagonism of morphine effects ([3]; 10 nM antagonist, distal colon): neither NAP nor BNAP showed significant antagonism of morphine effects
morphine pD2 in presence of antagonist ([3]; 100 nM antagonist, distal colon (naive 6.0)): 5.3
contractions induced by compound alone ([3]; up to 30 μM, distal colon preparation): Neither BNAP nor NAP alone at concentrations up to 30 μM induced contractions

C[C@@H](NC(=O)[C@@H](N)Cc1ccc(O)cc1)C(=O)NCC(=O)N(C)[C@@H](Cc1ccccc1)C(=O)NCCO [DAMGO, reference compound]
pIC50 for inhibition of EFS contractions ([4]; guinea pig ileum LMMP): 7.67±0.03
effect of nor-BNI on agonist inhibition of EFS contractions ([4]; nor-BNI 0.1 μM, 15 min pretreatment): did not significantly effect DAMGO inhibition of EFS contractions

CN1CC[C@]23c4c5ccc(O)c4O[C@H]2[C@@H](O)C=C[C@H]3[C@H]1C5 [morphine, reference compound]
bead expulsion time (colonic motility [5]): 75 min
antinociception (morphine antinociception): dose dependently induced antinociception
reduction of intestinal motility (intestinal transit): 3 fold

CN(C(=O)C(c1ccccc1)c1ccccc1)[C@H](CN1CC[C@H](O)C1)c1ccccc1 [Asimadoline]
effect on GI transit (GI transit): did not alter GI transit
